Reference: ChEMBL document CHEMBL4354883, “Design, Synthesis, and Biological Evaluation of HSP90 Inhibitor-SN38 Conjugates for Targeted Drug Accumulation” (J Med Chem, 2020)
One block for each molecule: values may come before it. Activity calls are given as the source filed them. The rule behind the calls is not given here.

What was measured:
Mus musculus [1] = experiment: In vivo inhibition of HSP90 in mouse xenografted with human Capan1 cells assessed as increase in HSP70 protein expression at 50 mg/kg, iv for every 2 days measured at 2 hrs post last dose by Western blot analysis; type: functional, organism-based
CAPAN-1 [2] = experiment: Antitumor activity against human Capan1 cells xenografted in mouse assessed as reduction in Ki67 expression at 50 mg/kg, iv for every 2 days measured at 2 hrs post last dose by Ki67 staining based immunohistochemical analysis; type: functional, organism-based
CAPAN-1 [3] = experiment: Antitumor activity against human Capan1 cells xenografted in mouse assessed as increase in apoptosis of tumor cells by measuring increase in green fluorescence at 50 mg/kg, iv for every 2 days measured at 2 hrs post last dose by TUNEL assay; type: functional, organism-based
[4] = Drug uptake in tumor of mouse xenografted with human HCT116 cells at 50 mg/kg, iv administered as single dose after 1 hr by LC-MS/MS analysis; type: ADME, organism-based, Neoplasm; settings: in vivo
[5] = Prodrug release in mouse plasma xenografted with human HCT116 cells assessed as increase in 7-ethyl-10-hydroxycamptothecin level at 50 mg/kg, iv administered as single dose and measured after 30 mins to 72 hrs by LC-MS/MS analysis; type: ADME, organism-based; settings: in vivo
Mus musculus [6] = experiment: In vivo inhibition of HSP90 in mouse xenografted with human Capan1 cells assessed as decrease in AKT protein expression at 50 mg/kg, iv for every 2 days measured at 2 hrs post last dose by Western blot analysis; type: functional, organism-based
Mus musculus [7] = experiment: In vivo inhibition of topoisomerase 1 in mouse xenografted with human Capan1 cells assessed as increase in phosphorylated KAP1 expression at 50 mg/kg, iv for every 2 days measured at 2 hrs post last dose by Western blot analysis; type: functional, organism-based
Heat shock protein HSP90 [8] = target: T1, Heat shock protein HSP90 (Homo sapiens, UniProt P07900+P08238); experiment: Inhibition of HSP90 in human A549 cells assessed as upregulation of HSP70 expression at 0.008 to 1 uM after 24 hrs by Western blot analysis; type: cell-based
[9] = Prodrug release in human A549 cells assessed as increase in 7-ethyl-10-hydroxycamptothecin level at 5 uM after 12 hrs by LC-MS/MS analysis; type: ADME, cell-based; settings: a549, 12 h
[10] = Prodrug release in tumor of mouse xenografted with human HCT116 cells assessed as increase in 7-ethyl-10-hydroxycamptothecin level by measuring retention time at 50 mg/kg, iv administered as single dose by LC-MS/MS analysis; type: ADME, organism-based, Neoplasm; settings: in vivo
[11] = Prodrug release in human A549 cells assessed as increase in 7-ethyl-10-hydroxycamptothecin level at 5 uM after 1 to 12 hrs by LC-MS/MS analysis; type: ADME, cell-based; settings: a549, 5 µM
[12] = Drug uptake in human HL7702 cells in PBS solution at 5 uM after 6 hrs by confocal laser scanning microscopic analysis; type: ADME, cell-based; settings: l02, 6 h
[13] = target: T2, DNA topoisomerase 1 (Homo sapiens) (UniProt P11387); experiment: Inhibition of topoisomerase 1 in human A549 cells assessed as increase in phosphorylated KAP1 expression after 24 hrs by Western blot analysis; type: cell-based
T2 sequence (whole entry): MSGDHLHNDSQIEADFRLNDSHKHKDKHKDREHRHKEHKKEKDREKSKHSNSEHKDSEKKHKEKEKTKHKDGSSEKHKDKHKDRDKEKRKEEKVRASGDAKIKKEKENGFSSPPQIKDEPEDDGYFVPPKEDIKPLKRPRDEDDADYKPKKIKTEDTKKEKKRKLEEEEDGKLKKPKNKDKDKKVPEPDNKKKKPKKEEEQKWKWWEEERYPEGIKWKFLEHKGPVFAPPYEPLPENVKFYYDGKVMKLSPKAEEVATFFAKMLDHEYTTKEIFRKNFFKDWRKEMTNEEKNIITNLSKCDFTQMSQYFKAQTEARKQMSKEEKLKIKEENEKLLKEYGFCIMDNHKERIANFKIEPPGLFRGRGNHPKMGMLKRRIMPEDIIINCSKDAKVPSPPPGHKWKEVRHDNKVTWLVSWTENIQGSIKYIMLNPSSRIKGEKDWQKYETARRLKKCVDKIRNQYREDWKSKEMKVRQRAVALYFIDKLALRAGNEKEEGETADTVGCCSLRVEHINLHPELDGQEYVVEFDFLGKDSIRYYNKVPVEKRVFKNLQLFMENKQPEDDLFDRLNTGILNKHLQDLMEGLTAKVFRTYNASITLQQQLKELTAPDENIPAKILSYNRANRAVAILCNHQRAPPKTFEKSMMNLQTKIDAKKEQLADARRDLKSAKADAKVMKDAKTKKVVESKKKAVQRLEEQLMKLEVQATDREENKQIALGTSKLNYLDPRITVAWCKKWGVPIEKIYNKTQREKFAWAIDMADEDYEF

[14] = Drug uptake in mouse plasma xenografted with human HCT116 cells assessed as increase in drug level with longer half life at 50 mg/kg, iv administered as single dose and measured after 30 mins to 72 hrs by LC-MS/MS analysis; type: ADME, organism-based; settings: in vivo
[15] = target: T2, DNA topoisomerase 1 (Homo sapiens); experiment: Inhibition of topoisomerase 1 in human HCT116 cells assessed as increase in phosphorylated KAP1 expression after 24 hrs by Western blot analysis; type: cell-based
Heat shock protein HSP90 [16] = target: T1, Heat shock protein HSP90; experiment: Inhibition of HSP90 in human HCT116 cells assessed as downregulation of Akt expression at 0.008 to 1 uM after 24 hrs by Western blot analysis; type: cell-based
Mus musculus [17] = experiment: Down regulation of topoisomerase 1 expression in mouse xenografted with human Capan1 cells at 50 mg/kg, iv for every 2 days measured at 2 hrs post last dose by Western blot analysis; type: functional, organism-based
[18] = Toxicity in spleen of mouse xenografted with human Capan1 cells assessed as pathological changes at 50 mg/kg, iv for every 2 days measured at 2 hrs post last dose by H and E staining based analysis; type: organism-based; settings: in vivo
[19] = Drug uptake in tumor of mouse xenografted with human HCT116 cells at 50 mg/kg, iv administered as single dose measured up to 72 hrs by LC-MS/MS analysis; type: ADME, organism-based, Neoplasm; settings: in vivo
[20] = Prodrug release in mouse plasma xenografted with human Capan1 cells assessed as increase in 7-ethyl-10-hydroxycamptothecin level at 50 mg/kg, iv after 30 mins to 72 hrs by LC-MS/MS analysis; type: ADME, organism-based; settings: in vivo
Heat shock protein HSP90 [21] = target: T1, Heat shock protein HSP90; experiment: Inhibition of HSP90 in human A549 cells assessed as downregulation of Akt expression at 0.008 to 1 uM after 24 hrs by Western blot analysis; type: cell-based
[22] = target: T2, DNA topoisomerase 1 (Homo sapiens); experiment: Inhibition of topoisomerase 1 in human HCT116 cells assessed as increase in phosphorylated KAP1 expression at 0.2 to 5 uM after 24 hrs by Western blot analysis; type: cell-based
Heat shock protein HSP90 [23] = target: T1, Heat shock protein HSP90; experiment: Inhibition of HSP90 in human HCT116 cells assessed as upregulation of HSP70 expression at 0.2 to 5 uM after 24 hrs by Western blot analysis; type: cell-based
Heat shock protein HSP90 [24] = target: T1, Heat shock protein HSP90; experiment: Inhibition of HSP90 in human HCT116 cells assessed as downregulation of AKT protein expression after 24 hrs by Western blot analysis; type: cell-based
Heat shock protein HSP90 [25] = target: T1, Heat shock protein HSP90; experiment: Inhibition of HSP90 in human A549 cells assessed as upregulation of HSP70 expression at 0.2 to 5 uM after 24 hrs by Western blot analysis; type: cell-based
[26] = target: T2, DNA topoisomerase 1 (Homo sapiens); experiment: Inhibition of topoisomerase 1 in human A549 cells assessed as increase in phosphorylated KAP1 expression at 0.2 to 5 uM after 24 hrs by Western blot analysis; type: cell-based

Drug uptake [4]: Not Active | Drug metabolism [5]: Metabolite_Detected | inhibition (Heat shock protein HSP90 [8]): inactive | Drug metabolism [9]: Metabolite_Detected | Retention_time [10]: 72 h | Drug metabolism [11]: Metabolite_Detected | Drug uptake [12]: Not Active | inhibition [13]: Dose-dependent effect | Drug uptake [14]: Active | inhibition [15]: Dose-dependent effect | inhibition (Heat shock protein HSP90 [16]): inactive | Drug uptake [19]: Active | Drug metabolism [20]: Metabolite_Detected | inhibition (Heat shock protein HSP90 [21]): inactive
Compound: CCc1c2c(nc3ccc(O)cc13)-c1cc3c(c(=O)n1C2)COC(=O)[C@@]3(CC)OC(=O)CNC(=O)c1noc(-c2cc(C(C)C)c(O)cc2O)c1-c1ccc(CN2CCOCC2)cc1
inhibition (Mus musculus [1]): Active | Activity (CAPAN-1 [2]): Active | Activity (CAPAN-1 [3]): Active | inhibition (Mus musculus [6]): Active | inhibition (Mus musculus [7]): Active | inhibition (Mus musculus [17]): Active | Activity [18]: Toxic

Compound: CCc1c2c(nc3ccc(OC(=O)N4CCC(NC(=O)c5noc(-c6cc(C(C)C)c(O)cc6O)c5-c5ccc(CN6CCOCC6)cc5)CC4)cc13)-c1cc3c(c(=O)n1C2)COC(=O)[C@]3(O)CC
inhibition [22]: inactive | inhibition (Heat shock protein HSP90 [23]): Active | inhibition (Heat shock protein HSP90 [24]): Dose-dependent effect | inhibition (Heat shock protein HSP90 [25]): Active | inhibition [26]: inactive
